Measured values published in US20260001893A1, “SMALL MOLECULE MODULATORS OF STAT6” (Gilead Sciences, Inc., priority 2024, published 2026).

Legend:
[1] = tested on: Eotaxin-3 (CCL26) release in human whole blood stimulated with IL-4; test: Human whole blood eotaxin-3 assay (IL-4 stimulated eotaxin-3 release); type: cell-based; settings: Homo sapiens, 48 h, human whole blood stimulated with recombinant human IL-4, 48 h, geometric mean; for EC50: inhibition of eotaxin-3 release, given for test compounds with >80% Emax; for Emax: given for test compounds with <80% Emax
Outline: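 Eotaxin-3 (CCL26) release was quantified by MSD immunoassay in supernatants of human heparinised whole blood after 48 h at 37° C with IL-4 ([…] final). Compounds, in 4-fold dilutions at 0.5% DMSO, were added 2 h before stimulation.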

[2] = biological target: T1, Human STAT6 (truncated, aa122-658, with N-terminal His-tag) (Homo sapiens, UniProt P42226); test: Surface plasmon resonance (SPR) assay, binding to human STAT6; settings: Biacore 8K, 25° C, immobilized human STAT6 on CM5 chip, multi-cycle kinetics; geometric mean
T1 construct: Human STAT6 (truncated, aa122-658, with N-terminal His-tag, expressed in insect cells); His-tag (N); made in house; host or cells: insect cells
T1 sequence (P42226 122-658): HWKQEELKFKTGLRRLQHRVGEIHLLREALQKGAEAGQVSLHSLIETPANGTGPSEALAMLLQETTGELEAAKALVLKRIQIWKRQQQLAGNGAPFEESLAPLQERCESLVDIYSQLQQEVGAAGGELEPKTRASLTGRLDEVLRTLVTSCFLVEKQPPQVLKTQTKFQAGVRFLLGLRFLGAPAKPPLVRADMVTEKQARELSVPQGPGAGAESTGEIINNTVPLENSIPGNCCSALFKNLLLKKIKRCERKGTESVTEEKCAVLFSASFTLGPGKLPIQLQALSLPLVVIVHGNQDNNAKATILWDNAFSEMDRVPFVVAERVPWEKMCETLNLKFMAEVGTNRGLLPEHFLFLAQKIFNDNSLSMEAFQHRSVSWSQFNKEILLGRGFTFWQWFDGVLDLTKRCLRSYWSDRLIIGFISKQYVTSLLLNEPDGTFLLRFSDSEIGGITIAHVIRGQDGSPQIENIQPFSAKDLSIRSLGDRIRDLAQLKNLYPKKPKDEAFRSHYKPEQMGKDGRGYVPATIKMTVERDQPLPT
Experimental: Surface Plasmon Resonance Assay
Biacore instruments from the 8K-series (Cytiva) were used, and measurements were performed at 25° C. Human STAT6 (truncated, aa122-658, with N-terminal His-tag, expressed in insect cells) was immobilized in the active flow cells on a CM5 chip using amine-coupling (default settings) at 10 μg/ml in 10 mM acetate buffer pH 5.5, at a contact time of 120-420 sec. and a flow rate of 10 μl/min. Reference flow cells were deactivated using blank immobilization. PBS-P+(Cytiva) supplemented with 2% DMSO was used as running buffer, and solvent correction was applied. Compounds were tested by multi-cycle kinetics injections using a contact time of 60 sec., dissociation time of up to 300 sec., and a flow rate of 30 μl/min.
Solvent-corrected, reference-subtracted and blank-corrected data was processed and binding isotherms were fitted according to a single report point from each sensorgram (Standard: Late binding (5 sec. before injection end); alternative: Earlier report point according to binding profile). Data fitting was done both with unfixed Rmax and with Rmax fixed to the theoretical value* assuming 1:1 binding to allow processing of data from both weak and strong binders as well as to evaluate binding stoichiometry.
Positive controls were run at the beginning, during, and at the end of the screen to evaluate surface activity.
*Equation for calculation of the theoretical Rmax(Theoretical Rmax=(MW Analyte/MW Ligand)×immobilization level).

| EC50 [1] [nM] | Kd [2] [nM] | SMILES | Emax [1] [%] |
| --- | --- | --- | --- |
| – | 37.3 | CN(C)C(=O)c1ccc(C2CCN(Cc3cc4c(-n5ccc(N)nc5=O)ccnc4n3C)CC2)cc1 [Example 1ab6, 4-(1-((4-(4-Amino-2-oxopyrimidin-1 (2H)-yl)-1-methyl-1H-pyrrolo[2,3-b]pyridin-2-yl)methyl)piperidin-4-yl)-N,N-dimethylbenzamide] | 70 to 80 |
| – | 75.4 | CN(C)C(=O)c1ccc(C2CCN(Cc3cc4c(-n5cc(F)c(N)nc5=O)ccnc4n3C)CC2)cc1 [Example 1ac2, 4-(1-((4-(4-Amino-5-fluoro-2-oxopyrimidin-1 (2H)-yl)-1-methyl-1H-pyrrolo[2,3-b]pyridin-2-yl)methyl)piperidin-4-yl)-N,N-dimethylbenzamide] | 70 to 80 |
| 119 | 12.5 | CN(C)C(=O)c1ccc(C2CCN(Cc3cc4c(-n5ccc(N)cc5=O)ccnc4n3C)CC2)cc1 [Example 1d1, 4-[1-[[4-(4-Amino-2-oxo-1-pyridyl)-1-methyl-pyrrolo[2,3-b]pyridin-2-yl]methyl]-4-piperidyl]-N,N-dimethyl-benzamide] | – |
| 84.1 | 18.2 | CNc1ccn(-c2ccnc3c2cc(CN2CCC(c4ccc(C(=O)N(C)C)cc4)CC2)n3C)c(=O)c1 [Example 1d3, N,N-Dimethyl-4-[1-[[1-methyl-4-[4-(methylamino)-2-oxo-1-pyridyl]pyrrolo[2,3-b]pyridin-2-yl]methyl]-4-piperidyl]benzamide] | – |
| 257 | 32.9 | CN(C)C(=O)c1ccc(C2CCN(Cc3cc4c(-n5cc(F)c(N)cc5=O)ccnc4n3C)CC2)cc1 [Example 1d19, 4-[1-[[4-(4-Amino-5-fluoro-2-oxo-1-pyridyl)-1-methyl-pyrrolo[2,3-b]pyridin-2-yl]methyl]-4-piperidyl]-N,N-dimethyl-benzamide] | – |
| 99.3 | 16.1 | CN(C)C(=O)c1ccc(C2CCN(Cc3cc4c(-n5ccc(N)c(Br)c5=O)ccnc4n3C)CC2)cc1 [Example 1d20, 4-[1-[[4-(4-Amino-3-bromo-2-oxo-1-pyridyl)-1-methyl-pyrrolo[2,3-b]pyridin-2-yl]methyl]-4-piperidyl]-N,N-dimethyl-benzamide] | – |
| 95.8 | 21 | Cc1c(N)ccn(-c2ccnc3c2cc(CN2CCC(c4ccc(C(=O)N(C)C)cc4)CC2)n3C)c1=O [Example 1d21, 4-[1-[[4-(4-Amino-3-methyl-2-oxo-1-pyridyl)-1-methyl-pyrrolo[2,3-b]pyridin-2-yl]methyl]-4-piperidyl]-N,N-dimethyl-benzamide] | – |
| 588 | 28.6 | CN(C)C(=O)c1ccc(C2CCN(Cc3cc4c(-n5ccc(N)c(C(F)(F)F)c5=O)ccnc4n3C)CC2)cc1 [Example 1d29, 4-[1-[[4-[4-Amino-2-oxo-3-(trifluoromethyl)-1-pyridyl]-1-methyl-pyrrolo[2,3-b]pyridin-2-yl]methyl]-4-piperidyl]-N,N-dimethyl-benzamide] | – |
| 88.4 | 25 | COCc1c(N)ccn(-c2ccnc3c2cc(CN2CCC(c4ccc(C(=O)N(C)C)cc4)CC2)n3C)c1=O [Example 1d30, 4-[1-[[4-[4-Amino-3-(methoxymethyl)-2-oxo-1-pyridyl]-1-methyl-pyrrolo[2,3-b]pyridin-2-yl]methyl]-4-piperidyl]-N,N-dimethyl-benzamide] | – |
| 100 | 22.3 | CN(C)C(=O)c1ccc(C2CCN(Cc3cc4c(-n5ccc(N)c(F)c5=O)ccnc4n3C)CC2)cc1 [Example 1d31, 4-[1-[[4-(4-Amino-3-fluoro-2-oxo-1-pyridyl)-1-methyl-pyrrolo[2,3-b]pyridin-2-yl]methyl]-4-piperidyl]-N,N-dimethyl-benzamide] | – |

The next lines start with the compound.

| SMILES | EC50 [1] [nM] | Kd [2] [nM] | Emax [1] [%] |
| --- | --- | --- | --- |
| CNc1ccn(-c2ccnc3c2cc(CN2CC[C@@H](c4ccc(C(=O)N(C)C)cc4)[C@H](F)C2)n3C)c(=O)c1 (single isomer, unassigned) [Example 1f4] | 205 | 32.2 | – |
| CNc1ccn(-c2ccnc3c2cc(CN2CC[C@@H](c4ccc(C(=O)N(C)C)cc4)[C@@H](F)C2)n3C)c(=O)c1 (single isomer, unassigned) [Example 1f7] | 245 | 21.7 | – |
| CNc1ccn(-c2ccnc3c2cc([C@@H](C)N2CCC(c4ccc(C(=O)N(C)C)cc4)CC2)n3C)c(=O)c1 (single isomer, unassigned) [Example 1m73] | 26 | 12.1 | – |
| CNc1ccn(-c2ccnc3c2cc(CN2CC[C@H](c4ccc(C(=O)N(C)C)cc4)C(F)(F)C2)n3C)c(=O)c1 (stereo in doubt) [Example 1f1, N,N-Dimethyl-4-[(4R)-3,3-difluoro-1-[[1-methyl-4-[4-(methylamino)-2-oxo-1-pyridyl]pyrrolo[2,3-b]pyridin-2-yl]methyl]-4-piperidyl]-benzamide] | 98.5 | 15 | – |
| CN(C)C(=O)c1ccc(C2CCN(Cc3cc4c(-n5ccc6[nH]nc(C(F)(F)F)c6c5=O)ccnc4n3C)CC2)cc1 [Example 1ab3, N,N-Dimethyl-4-(1-((1-methyl-4-(4-oxo-3-(trifluoromethyl)-1,4-dihydro-5H-pyrazolo[4,3-c]pyridin-5-yl)-1H-pyrrolo[2,3-b]pyridin-2-yl)methyl)piperidin-4-yl)benzamide] | 193 | 20.4 | – |
| [2H]C([2H])([2H])N(C(=O)c1ccc(C2CCN(Cc3cc4c(-n5ccc(NC)cc5=O)ccnc4n3C)CC2)cc1)C([2H])([2H])[2H] [Example 1d4, 4-[1-[[1-Methyl-4-[4-(methylamino)-2-oxo-1-pyridyl]pyrrolo[2,3-b]pyridin-2-yl]methyl]-4-piperidyl]-N,N-bis(trideuteriomethyl)benzamide] | 221 | 20.9 | – |
| CN(C)C(=O)c1ccc(C2CCN(Cc3cc4c(-n5ccc6c(c5=O)CCN6)ccnc4n3C)CC2)cc1 [Example 1d23, N,N-Dimethyl-4-[1-[[1-methyl-4-(4-oxo-2,3-dihydro-1H-pyrrolo[3,2-c]pyridin-5-yl)pyrrolo[2,3-b]pyridin-2-yl]methyl]-4-piperidyl]benzamide] | – | 21.8 | 70 to 80 |
| CNc1ccn(-c2ccnc3c2cc(CN2CCC(c4ccc(C(=O)N(C)C)cc4C)CC2)n3C)c(=O)c1 [Example 1d25, N,N,3-Trimethyl-4-[1-[[1-methyl-4-[4-(methylamino)-2-oxo-1-pyridyl]pyrrolo[2,3-b]pyridin-2-yl]methyl]-4-piperidyl]benzamide] | – | 69.2 | 70 to 80 |
| CNc1ccn(-c2ccnc3c2cc(CN2CCC(c4c(C)cc(C(=O)N(C)C)cc4C)CC2)n3C)c(=O)c1 [Example 1d27, N,N,3,5-Tetramethyl-4-[1-[[1-methyl-4-[4-(methylamino)-2-oxo-1-pyridyl]pyrrolo[2,3-b]pyridin-2-yl]methyl]-4-piperidyl]benzamide] | 25.1 | 16 | – |
| CNc1ccn(-c2ccnc3c2cc(CN2CCC(c4ccc(C(=O)N(C)C)cc4F)CC2)n3C)c(=O)c1 [Example 1d34, 3-Fluoro-N,N-dimethyl-4-[1-[[1-methyl-4-[4-(methylamino)-2-oxo-1-pyridyl]pyrrolo[2,3-b]pyridin-2-yl]methyl]-4-piperidyl]benzamide] | 29.8 | 14.2 | – |
| CNc1ccn(-c2ccnc3c2cc(CN2CCC(c4ccc(C(=O)N(C)C)cc4OC)CC2)n3C)c(=O)c1 [Example 1d36, 3-Methoxy-N,N-dimethyl-4-[1-[[1-methyl-4-[4-(methylamino)-2-oxo-1-pyridyl]pyrrolo[2,3-b]pyridin-2-yl]methyl]-4-piperidyl]benzamide] | 260 | 51.6 | – |
| CN(C)C(=O)c1ccc(C2CCN(Cc3cc4c(-n5ccc(N)c(COC(C)(C)C)c5=O)ccnc4n3C)CC2)cc1 [Example 1d39, 4-[1-[[4-[4-Amino-3-(tert-butoxymethyl)-2-oxo-1-pyridyl]-1-methyl-pyrrolo[2,3-b]pyridin-2-yl]methyl]-4-piperidyl]-N,N-dimethyl-benzamide] | 961 | 98.7 | – |
